We go through 13 molecules from patent publication US7008949B2, “Heterocyclic compounds which inhibit leukocyte adhesion mediated by α4 integrins” (Elan Pharmaceuticals, Inc., priority 2003, dated 2006).

Converted amounts (≈) assume the structure as drawn.

The target of series [1] is T1, α4β1 Integrin (Homo sapiens, UniProt P05556+P13612).
T1 construct: endogenous in cells; host or cells: Jurkat cells
The experiment in a line: α4β1 Integrin Adhesion Assay: Jurkat cell adhesion to human plasma fibronectin. It counts as cell-based. The conditions noted are these: Jurkat cells. As to the method: 96 well plates (Costar 3590 EIA plates) were coated with human fibronectin (Gibco/BRL, cat #33016-023) at a concentration of 10 μg/mL overnight at 4° C. The plates were then blocked with a solution of bovine serum albumin (BSA; 0.3%) in saline. Jurkat™ cells (maintained in log phase growth) were labeled with Calcein AM according to the manufacturer's instructions, and suspended at a concentration of 2×10^6 cells/mL in Hepes/Saline/BSA. The cells were then exposed to test and control compounds for 30 minutes at room temperature before transfer to individual wells of the fibronectin coated plate. Adhesion was allowed to occur for 35 minutes at 37° C. The wells were then washed by gentle aspiration and pipetting with fresh saline. Fluorescence associated with the remaining adherent cells was quantified using a fluorescence plate reader at EX 485/EM 530.
Cell cultures were prepared by first splitting the stationary phase Jurkat™ cells at 1:10 on day one, and 1:2 on day two to perform assay on day 3. The cells split 1:10 on day one were split 1:4 on day 3 for a day 4 assay.
The assay plates were prepared by first making a working solution of Gibco/BRL Human Fibronectin (cat # 33016-023) in PBS++, at 10 μg/mL.
A Costar 3590 EIA plate was then coated with 50 μL/well for 2 hours at room temperature (thought it can also be left overnight at 4° C.). Finally the plate was asperated and blocked with Hepes/Saline Buffer, 100 μL/well, for 1 hour at RT followed by washing three times with 150 μL of PBS++.
Compound dilutions were accomplished by preparing 1:3 serial dilutions of compounds as follows. For each plate (4 compounds/plate) 600 μL were added to 4 Bio-Rad Titertubes in a Titertube rack. Enough compound was added to each appropriate tube to give a 2× concentration using methods well known in the art. Using Falcon Flexiplates, 100 μL of Hepes/Saline buffer or human serum were added to rows B through G. A multi-channel pipetter set to 180 μL was used to with four tips spaced evenly the pipetter. Each set of four tubes was mixed 5 times and 180 μL of 2× compound was transferred to the first column of each compound dilution in Row B, leaving Row A empty. 180 μL were added to the other wells in Row A. Serial dilutions were performed down the plate by transferring 50 μL to the next dilution and mixing 5 times, changing tips each time after mixing. Dilutions were stopped at Row F. Row G had no compound present.
A 20 μg/mL solution in Hepes/Saline buffer or human serum, of 21/6 antibody was the positive control and was set aside in a reagent trough to add to cell suspension plate.
The cell staining was accomplished by first harvesting the log-phase Jurkat™ cells by centrifugation in 50 mL tubes (1100 rpm for 5 minutes). The cells were resuspended in 50 mL PBS++, spun, and resuspend in 20 mL PBS++. The cells were stained by adding 20 μL of Calcein AM for 30 minutes R.T. The volume was brought to 50 mL with Hepes/Saline buffer and the cells were counted, spun, and resuspend to 2×10^6 cells/mL in Hepes/Saline buffer or human serum.
The compounds were incubated using the following procedure. In a new flexiplate, 65 μL of stained cells were added to Rows B through H. Then 65 μL of 2× compounds were added to the appropriate rows following the plate setup and mixed 3×. 65 μL of 2×-21/6 antibody were added to Row H and mixed 3×. Finally the plate was incubated at room temperature for 30 minutes.
Fibronectin adhesion was measured using a fluorescent plate reader at EX 485/EM 530 after the following work up procedure. After incubation, the cells were mixed 3× and 100 μL were transferred to the Fibronectin coated plates and incubated at 37° C. for about 35 minutes. Each plate was washed, row by row, by gently pipetting 100 μL of R.T. PBS++ down the sides of the wells and turning the plate 90 degrees to aspirate. This procedure was repeated for a total of 3 washes. Each well was filled with 100 μL after washing by pipetting down the side of the well. […]

Series [2] in a line: Cassette dosing and serum analysis for determination of oral bioavailability. The conditions noted are these: male SD rats, oral cassette of 6 compounds, total dose 10 mg/kg, plasma at 4, 8, 12 h. The format is in vivo, rat. As to the method:
The oral bioavailability was screened by dosing rats with a cassette, i.e. mixture of 6 compounds per dosing solution. The cassette included 5 test articles and a standard compound, for a total dose of 10 mg/kg. Each compound/test article was converted to the sodium salt with equimolar 1 N NaOH and dissolved in water at 2 mg/mL. The cassette was prepared by mixing equal volumes of each of the six solutions. The cassette dosing solution was mixed well and then the pH was adjusted to 7.5–9. The dosing solution was prepared the day before the study and stirred overnight at room temperature.
Male Sprague Dawley (SD) rats from Charles River Laboratories, 6–8 weeks old were used in this screen. Rats were quarantined for at least one day and had continuous access to food and water. On the night before the administration of the cassette, the rats were fasted for approximately 16 h.
Four SD rats were assigned in each cassette. A single dose of the dosing solution was administered orally to each rat. The dosing volume (5 mL/kg) and time were recorded and rats were fed 2 h after dosing.
Blood samples were collected via cardiac puncture at the following time points: 4 h, 8 h and 12 h. Immediately prior to blood collection, rats were anesthetized with CO2 gas within 10–20 seconds. After the 12-hour samples were collected, the rats were euthanized via CO2 asphyxiation followed by cervical dislocation.
Blood samples were kept in heparinized microtainer tubes under sub-ambient temperature (4° C.) before they were processed. Blood samples were centrifuged (10000 rpm for 5 minutes) and plasma samples were removed and stored in a −20° C. freezer until analyzed for drug levels. Drug levels in the plasma were analyzed using the following protocol for direct plasma precipitation.
The in vivo plasma samples were prepared in a 1.5 mL 96-well plate, by adding, in order, 100 μL of the test plasma, 150 μL of methanol, followed by vortexing for 10–20 seconds. 150 μL of 0.05 ng/μL of an Internal Standard in acetonitrile were added and vortexed for 30 seconds.
The standard curve samples were prepared in a 1.5 mL 96-well plate, by adding, in order, 100 μL of control mouse plasma, followed by 150 μL of methanol and vortexing for 10–20 seconds. 150 μL of 0.05 ng/μL of an Internal Standard in acetonitrile were added and vortexed for 30 seconds. The samples were spiked with 0–200 ng (10 concentrations) of the compound of interest in 50% methanol to obtain a standard curve range of 0.5 ng/mL–2,000 ng/mL. Again, the sample was vortexed for 30 seconds.
The samples were then spun for 20–30 minutes at 3000 rpm in an Eppendorf microfuge before 80–90% of supernatant was transferred into a clean 96-well plate. The organic solvent was then evaporated until the samples were dry (under N2 at 40° C./30–60 min (ZymarkTurbovap)).
The residue was then dissolved in […] mobile phase (50% CH3OH/0.1% TFA). LC/MS/MS was then run using a PE-Sciex API-3000 triple quadurpole mass spectrometer (SN0749707), Perkin-Elmer, Series200auto-sampler, and shimadzu 10A pump. Acquisition was done with PE-Sciex Analyst (v1.1) and data analysis and quantification were accomplished using PE-Sciex Analyst (v1.1). A 5–50 μL sample volume was injected onto a reverse phase ThermoHypersil DASH-18 column (Keystone 2.0×20 mm, 5 μm, PN: 8823025-701) using a mobile phase of 25% CH3OH, 0.1% TFA-100% CH3OH, 0.1% TFA. The run time was about 8 minutes at a flow rate of about 300 μL/minutes.
The Area Under the Curve (AUC) was calculated using the linear trapezoidal rule from t=0 to the last sampling time tx (see Handbook of Basic Pharmacokinetics, Wolfgang A. Ritschel and Gregory L. Kearns, 5th ed, 1999). AUC^0→tx═S((Cn+Cn+1)/2))·(tn+1−tn)[(μg/mL)h]
In the case of the cassette dosing paradigm, samples at 4, 8 and 12 h post extravascular dosing, the AUC was calculated from t=0 to t=12 h.

[3] abbreviates: IC50, Cell Adhesion to Human Plasma Fibronectin (With Human Serum), with human serum.
[4] abbreviates: IC50, Cell Adhesion to Human Plasma Fibronectin (Without the Human Serum), without human serum.

T1 sequence (P13612 34-1032): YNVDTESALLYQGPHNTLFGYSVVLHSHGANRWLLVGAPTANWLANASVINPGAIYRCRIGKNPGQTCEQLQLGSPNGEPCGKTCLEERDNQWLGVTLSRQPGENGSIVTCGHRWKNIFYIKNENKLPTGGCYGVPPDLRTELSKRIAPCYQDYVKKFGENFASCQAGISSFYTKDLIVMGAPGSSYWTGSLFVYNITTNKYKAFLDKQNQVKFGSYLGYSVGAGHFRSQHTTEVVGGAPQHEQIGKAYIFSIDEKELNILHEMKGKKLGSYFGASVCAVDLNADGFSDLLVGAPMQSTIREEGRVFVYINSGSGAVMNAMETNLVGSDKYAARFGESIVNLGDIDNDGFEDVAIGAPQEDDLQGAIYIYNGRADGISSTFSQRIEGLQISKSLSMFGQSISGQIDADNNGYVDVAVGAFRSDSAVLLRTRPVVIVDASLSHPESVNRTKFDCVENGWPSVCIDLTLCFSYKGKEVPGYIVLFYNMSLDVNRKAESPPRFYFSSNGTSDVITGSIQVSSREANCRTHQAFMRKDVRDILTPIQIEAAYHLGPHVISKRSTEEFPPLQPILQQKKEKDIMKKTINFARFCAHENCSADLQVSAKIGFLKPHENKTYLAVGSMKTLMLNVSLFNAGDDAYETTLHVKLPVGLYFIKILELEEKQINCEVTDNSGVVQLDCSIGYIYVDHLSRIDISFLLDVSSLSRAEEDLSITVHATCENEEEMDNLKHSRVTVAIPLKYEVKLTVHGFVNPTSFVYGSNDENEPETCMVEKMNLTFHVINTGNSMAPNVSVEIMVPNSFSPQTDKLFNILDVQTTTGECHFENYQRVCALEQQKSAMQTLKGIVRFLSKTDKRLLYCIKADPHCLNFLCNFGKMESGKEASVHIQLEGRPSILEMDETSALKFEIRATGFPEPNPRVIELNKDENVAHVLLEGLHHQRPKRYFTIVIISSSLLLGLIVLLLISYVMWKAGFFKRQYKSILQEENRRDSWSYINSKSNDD
T1 sequence (P05556 21-798): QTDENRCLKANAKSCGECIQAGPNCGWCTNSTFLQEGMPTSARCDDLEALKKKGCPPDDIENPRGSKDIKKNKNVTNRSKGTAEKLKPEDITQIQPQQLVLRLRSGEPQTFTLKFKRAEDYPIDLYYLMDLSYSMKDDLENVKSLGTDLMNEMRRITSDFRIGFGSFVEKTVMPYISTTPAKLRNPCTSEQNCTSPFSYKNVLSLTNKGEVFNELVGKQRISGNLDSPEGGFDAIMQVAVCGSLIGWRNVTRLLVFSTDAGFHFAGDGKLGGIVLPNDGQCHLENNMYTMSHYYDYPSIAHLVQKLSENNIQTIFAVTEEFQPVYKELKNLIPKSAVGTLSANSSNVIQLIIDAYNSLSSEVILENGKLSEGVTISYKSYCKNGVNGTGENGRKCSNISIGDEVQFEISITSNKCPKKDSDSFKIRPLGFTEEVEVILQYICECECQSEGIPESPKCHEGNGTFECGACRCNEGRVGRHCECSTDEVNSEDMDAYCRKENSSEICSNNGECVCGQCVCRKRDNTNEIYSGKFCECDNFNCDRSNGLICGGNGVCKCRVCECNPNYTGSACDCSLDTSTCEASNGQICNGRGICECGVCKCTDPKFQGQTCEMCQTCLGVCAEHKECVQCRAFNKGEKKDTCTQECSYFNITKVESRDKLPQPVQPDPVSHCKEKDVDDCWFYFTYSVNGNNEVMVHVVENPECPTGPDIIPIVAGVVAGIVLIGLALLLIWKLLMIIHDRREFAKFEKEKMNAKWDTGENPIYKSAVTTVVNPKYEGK

Consider `CCN(CC)c1ncc(N(CC)S(=O)(=O)c2cc(F)cc(F)c2)c(N[C@@H](Cc2ccc(OC(=O)N(C)C)cc2)C(=O)O)n1` [Example 16, 2-{2-diethylamino-5-[(3.5-difluorobenzenesulfonyl)ethylamino]pyrimidin-4-ylamino}-3-(4-dimethylcarbamoyloxyphenyl) propionic acid], for which the IC50 in series [1] (setting [3]) was 108 nM; in series [1] (setting [4]) it was 1.67 nM. The “AUC (average AUC 0→12 h)” value in series [2] was 0.1721 (μg/mL)h.
Regarding `CCN(CC)c1ncc(N(CC(C)C)S(=O)(=O)c2ccc(F)cc2)c(N[C@@H](Cc2ccc(OC(=O)N(C)C)cc2)C(=O)O)n1` [Example 23, 2-{2-diethylamino-5-[(4-fluorobenzenesulfonyl)isobotylamino]pyrimidin-4-ylamino}-3-(4-dimethylcarbamoyloxyphenyl)propionic acid], the IC50 in series [1] (setting [3]) was 117 nM; in series [1] (setting [4]), 6.34 nM. Besides, the “AUC (average AUC 0→12 h)” value in series [2] is reported as 0.413 (μg/mL)h.
The corresponding values for `CCN(CC)c1ncc(N(C)S(=O)(=O)c2ccc(F)c(F)c2)c(N[C@@H](Cc2ccc(OC(=O)N(C)C)cc2)C(=O)O)n1` [Example 3] are 251 nM, 3.3 nM and 1.5483 (μg/mL)h.
For the molecule “2-{2-diethylamino-5-[(4-fluorobenzenesulfonyl)ethylamino]pyrimidin-4-ylamino}-3-(4-dimethylcarbamoyloxyphenyl)propionic acid [Example 9]”, the “IC50, Cell Adhesion to Human Plasma Fibronectin (With Human Serum)” value (shortened to “IC50, Cell Adhesion … (With Human Serum)”) in series [1] (with human serum) was determined as 0.106 µg/mL. The “IC50, Cell Adhesion to Human Plasma Fibronectin (Without the Human Serum)” value (from here on “IC50, Cell Adhesion … (Without the Human Serum)”) in series [1] (without human serum) worked out at 0.001 µg/mL. For the same molecule, the “AUC (average AUC 0→12 h)” value in series [2] is 1.564 (μg/mL)h.
As for `C#CCN(c1cnc(N(CC)CC)nc1N[C@@H](Cc1ccc(OC(=O)N(C)C)cc1)C(=O)O)S(=O)(=O)c1ccc(F)cc1` [Example 27], the concentration for half-maximal inhibition (IC50) in series [1] (setting [3]) was 106 nM; in series [1] (setting [4]), 1.63 nM. In addition, the “AUC (average AUC 0→12 h)” value in series [2] was 1.6258 (μg/mL)h.
The corresponding values for `CCN(CC)c1ncc(N(CC)S(=O)(=O)c2ccc(F)cc2F)c(N[C@@H](Cc2ccc(OC(=O)N(C)C)cc2)C(=O)O)n1` [Example 18] are 40.3 nM, 3.22 nM and 0.2578 (μg/mL)h.
With `C#CCN(c1cnc(N(CC)CC)nc1NC(Cc1ccc(OC(=O)N(C)C)cc1)C(=O)O)S(=O)(=O)c1ccc(F)cc1F` (stereo not drawn) [Example 28, 2-{2-Diethylamino-5-[(2,4-difluorobenzenesulfonyl)propargylamino]pyrimidin-4-ylamino}-3-(4-dimethylcarbamoyloxyphenyl)propionic acid], the figures for the IC50 in series [1] (setting [3]) and in series [1] (setting [4]) were 72.9 nM and 6.34 nM, respectively. Besides, the “AUC (average AUC 0→12 h)” value in series [2] is reported as 0.7968 (μg/mL)h.
The matching figures for `CCN(CC)c1ncc(N(C)S(=O)(=O)c2ccc(Cl)c(Cl)c2)c(N[C@@H](Cc2ccc(OC(=O)N(C)C)cc2)C(=O)O)n1` [Example 4]: 625 nM, 6.25 nM and 0.5965 (μg/mL)h.
The matching figures for `CCN(CC)c1ncc(N(C)S(=O)(=O)c2cc(Cl)cc(Cl)c2)c(N[C@@H](Cc2ccc(OC(=O)N(C)C)cc2)C(=O)O)n1` [Example 19]: 133 nM, 5.31 nM and 0.0697 (μg/mL)h.
In the case of `CCN(CC)c1ncc(N(C)S(=O)(=O)c2cc(F)ccc2F)c(NC(Cc2ccc(OC(=O)N(C)C)cc2)C(=O)O)n1` (stereo not drawn) [Example 25], the “IC50, Cell Adhesion … (With Human Serum)” value in series [1] (with human serum) came out at 6.72 µg/mL (≈ 11.1 µM). Also, the “IC50, Cell Adhesion … (Without the Human Serum)” value in series [1] (without human serum) was 0.006 µg/mL (≈ 0.00989 µM). Further, the “AUC (average AUC 0→12 h)” value in series [2] is 0.4559 (μg/mL)h.
`CCN(CC)c1ncc(N(CC(F)(F)F)S(=O)(=O)c2ccc(F)cc2)c(NC(Cc2ccc(OC(=O)N(C)C)cc2)C(=O)O)n1` (stereo not drawn) [Example 29, 2-{2-diethylamino-5-[(4-fluorobenzenesulfonyl)-(2,2,2-trifluoroethyl)amino]pyrimidin-4-ylamino}-3-(4-dimethylcarbamoyloxyphenyl)propionic acid]: the IC50 in series [1] (setting [3]) was 53 nM; in series [1] (setting [4]), 3.35 nM. Besides, in series [2], the “AUC (average AUC 0→12 h)” value is reported as 0.2941 (μg/mL)h.
With “2-{2-diethylamino-5-[(4-fluorobenzenesulfonyl)allylamino]pyrimidin-4-ylamino}-3-(4-dimethylcarbamoyloxyphenyl)propionic acid [Example 22]”, in series [1] (with human serum), the “IC50, Cell Adhesion … (With Human Serum)” value is 0.02529 µg/mL. Further, in series [1] (without human serum), the “IC50, Cell Adhesion … (Without the Human Serum)” value stood at 0.001506 µg/mL. In addition, the “AUC (average AUC 0→12 h)” value in series [2] was 0.6297 (μg/mL)h.
Turning to `CCN(CC)c1ncc(N(C)S(=O)(=O)c2ccc(F)cc2F)c(N[C@@H](Cc2ccc(OC(=O)N(C)C)cc2)C(=O)O)n1` [Example 17], the IC50 in series [1] (setting [3]) was 39.6 nM; in series [1] (setting [4]), 1.65 nM. The “AUC (average AUC 0→12 h)” value in series [2] is recorded as 1.0075 (μg/mL)h.
